# Measured values: patent US20260202414A1, “PROTEIN COMPLEXES FOR PROXIMITY-BASED LABELING OF INTRACELLULAR MICROENVIRONMENTS” (THE TRUSTEES OF PRINCETON UNIVERSITY, priority 2022, published 2026)
# System: cereblon (CRBN)
# Assay: Proximity labeling study with CRBN-bound iridium complex and diazo-biotin (FIG. 3/4)
# Type: cell-based
# Conditions: transfected cells expressing CRBN with BCNK, tetrazine iridium complex bound to CRBN, diazo-biotin, irradiation; in the presence of CC-885 (without CC-885 only CRBN is enriched)
# Text: Alternatively, the transition metal complex can be bonded to a derivatized amino acid or unnatural amino acid of the protein substrate or E3 ligase. Suitable click chemistry moieties of the transition metal complex and/or unnatural amino acid can be selected from the group consisting of DBCO, BCN, TCO, tetrazine, alkyne and azide. FIG. 3 illustrates validation of such a binding strategy with cereblon (CRBN). Transfected cells were employed to express CRBN with BCNK. Iridium complex comprising a tetrazine moiety was introduced to bind the iridium complex to CRBN. CRBN modulator CC-885 was added to bind to CRBN, and diazo-biotin was added as a protein labeling agent. The iridium complex was irradiated to form a reactive intermediate through energy transfer to the diazo-biotin as described further herein. The reactive intermediate binding to biomolecular species within a predetermined radius of the CRBN-Ir. FIG. 4 illustrates the results of the labeling study. […] In the absence of CC-885, only CRBN is enriched.
structure (smiles),measurement,value
Cc1ccc(NC(=O)NCc2ccc3c(c2)CN(C2CCC(=O)NC2=O)C3=O)cc1Cl (stereo not shown) [CC-885],proteins enriched in the labeling study,CRBN and GSPT1 are enriched
